# In US12637434B2, “Salt of arylaminoquinazoline-containing compound, and preparation method therefor and use thereof” (priority 2020, dated 2026):
# Entries after “also recorded” stand apart in the source; their conditions may differ. Like-named read-outs stand apart in the source and are kept apart here.
# Assays:
# [1] = Solubility test in water and pH 2.0 buffer (HPLC); format: physicochemical; conditions: for solubility in pH 2.0 buffer compared with Preparation Example 1 (in words): acidic conditions; for solubility: 25 °C, thermodynamic from solid; for Solubility (25° C., mg/mL) Medium: Water / Solubility (25° C., mg/mL) Medium: pH 2.0 buffer / solubility: 25° C.
# Protocol: 2. Solubility (Water and pH 2.0 Buffer)
# Detection Instrument: Agilent 1260 High Performance Liquid Chromatograph
# Detection medium: purified water, pH 2.0 phosphoric acid-disodium hydrogen phosphate buffer
# Preparation of control solution: it was taken that an appropriate amount of the referen ce substance of the compound of Formula 1, accurately weighed, dissolved completely by solven t and diluted to 100 μg/mL. 10 μL of the prepared solution was accurately measured and the conte nts of Compound 1 were determined by HPLC.
# The salts obtained in Preparation Example 1, Examples 1 to 4 and 9 and Comparative Examples 1 to 2 were tested for solubility in water and pH 2.0 buffer.
# [2] = Solubility test in biological vehicles (FaSSIF, FeSSIF, SGF); format: physicochemical; conditions: for solubility at 0.5 h: 37 °C, thermodynamic from solid
# Protocol: 9. Determination of Solubility in Biological Vehicles
# The preparation procedures of the biological vehicles (SGF, FeSSIF and FaSSIF) used for solubility determination were shown in the following table:
# Test method: a sample to be tested was added to a biological vehicles and prepared into a solution or suspension having a target concentration of 10 mg/mL. The resulting solution or suspension was shaken continuously at 200 rpm at 37° C. The suspension was filtered at 0.5 hour and the concentration of the compound in the filtrate was determined by using HPLC.
# Solubility Test in Biological Vehicles
# The samples of Example 1 and Example 10 (20 mg each) were weighed, and different biological vehicles (2 mL) were added threreto to perform the solubility test, and the results were shown in Table 11.
# [3] = Long-term stability test; format: physicochemical; conditions: for Purity (5 months) / Appearance / Crystalline form: 40 ± 2° C., 75% ± 5% RH, 5 months; for Appearance / Crystalline form: sealed with polyethylene film; for Purity (0 month): start of long-term stability test
# Protocol: An appropriate amount of the salt samples obtained in Examples 1 to 4 and 9 were sealed with a polyethylene film and placed for 5 months under the conditions of 40±2° C. and 75%±5% RH, and a long-term test was carried out.
# [4] = Solid stability test; format: physicochemical; conditions: 40° C./75% RH (open), 7 days
# Protocol: The dihydrochloride salt of Example 1 and the dihydrochloride salt tetrahydrate of Example 2 and Example 10 were all placed under the condition of 40° C./75% RH (open) for 7 days to perform the stability test.
# [5] = Mechanical stability test; format: physicochemical; conditions: mechanical grinding for 5 minutes
# Protocol: Mechanical Stability Test
# An appropriate amount of the dihydrochloride salt of Example 1 was subjected to mechanical grinding for 5 minutes, and X-ray powder diffraction was performed.
# [6] = Solubility test in conventional organic solvents; format: physicochemical
# Protocol: Solubility Test in Conventional Organic Solvents
# The solubility test of the sample of Preparation Example 1 in different organic solvents was carried out by using the method in the Pharmacopoeia (Volume II, the general examples), and the solubility of the sample of Example 1 in different organic solvents was estimated using the gravimetric method, and the results were shown in Table 15.
# [7] = Slurrying in organic solvents, crystalline form by XRPD; format: physicochemical; conditions: ~15 mg in 0.5 mL of solvents of Table 15, room temperature and 50° C.
# Protocol: Note: The sample of Example 1 (˜15 mg) was added to 0.5 mL of the different solvents listed in Table 15, and slurried at room temperature and 50° C., and the filtered sample was subjected to X-ray powder diffraction. The crystalline form was consistent with that of the dihydrochloride salt obtained in Example 1.
# [8] = test system: human melanoma A375; test: Pharmacodynamic experiment of human melanoma A375 nude mice xenograft tumor model; format: in vivo, nu/nu female nude mice; conditions: for Animal number (Survival/total) / Tumor weight / Inhibition rate %: once a day, 20 days; for Tumor weight / Inhibition rate %: Day 21; for Inhibition rate %: tumor weight
# Protocol: Pharmacodynamic Experiment of Human Melanoma A375 Nude Mice Xenograft Tumor Model
# A well-growing human melanoma A375 cell suspension was inoculated into the subcutaneous tissue of the forelimb axilla of nu/nu female nude mice in an inoculation volume of 0.1 mL containing approximately 1×10^7 tumor cells. When the tumor volume grew to 100 mm^3 or more, the mice with good tumor growth were selected, and the animals were evenly divided into 5 groups according to the tumor volume: a Vehicle group, a Vandetanib 12.5 mg/kg group, a Vandetanib 25 mg/kg group, an Example 1 sample 12.5 mg/kg group, and an Example 1 sample 25 mg/kg group, and there were 6 animals in each group. The Vehicle group was orally administered with distilled water, and the remaining groups were orally administered with the corresponding tested drugs in a dosing volume of 20 mL/kg, once a day, and continuously administered for 20 days. The animals were housed normally after administration, and the anti-tumor effect of the tested drugs was dynamically observed by using the method of measuring the diameter of the tumors. At the end of the experiment (Day 21), the animals were sacrificed, and the tumors, were stripped and weighed, and the tumor inhibition rate was calculated.
# [9] = pH 2.0 phosphoric acid-disodium hydrogen phosphate buffer
# [10] = Preparation Example 1 by Pharmacopoeia method, Example 1 estimated by gravimetric method
# [11] = purified water, water, purified water, read-out: Solubility (25° C., mg/mL) Medium: Water
# [12] = 0.5 h, 37° C., 200 rpm, target concentration 10 mg/mL, unit not given
smiles,measurement,setting,value
COc1cc2c(Nc3ccc(Br)cc3F)ncnc2cc1OCCCCN(C)C [Comparative Example 1],"Solubility (25° C., mg/mL) Medium: Water",[1]; purified water,"Jelly-like, solubility"
same,"Solubility (25° C., mg/mL) Medium: Water","[1]; purified water, listed as monohydrochloride salt",jelly-like
COc1cc2c(Nc3ccc(Br)cc3F)ncnc2cc1OCCCCN(C)C [Comparative Example 2],"Solubility (25° C., mg/mL) Medium: Water",[1]; purified water,"Jelly-like, solubility"
same,"Solubility (25° C., mg/mL) Medium: Water","[1]; purified water, listed as malate salt",jelly-like
COc1cc2c(Nc3ccc(Br)cc3F)ncnc2cc1OCCCCN(C)C [Example 1],"Solubility (25° C., mg/mL) Medium: pH 2.0 buffer",[1]; [9],14.29 mg/mL
same,"Solubility (25° C., mg/mL) Medium: Water",[1]; purified water,40.07 mg/mL
same,solubility in pH 2.0 buffer compared with Preparation Example 1 (in words),[1],slightly better
same,water-solubility (in words),"[1]; water, listed as dihydrochloride salt",best of all samples
same,solubility at 0.5 h,"[2]; FaSSIF, pH 6.5, fassif, 0.5 h, 37° C., 200 rpm, target concentration 10 mg/mL, unit inferred, read-out: Solubility in FaSSIF (pH 6.5)",> 10 mg/mL
same,solubility in biological vehicles with different pH (in words),"[2]; FaSSIF, FeSSIF, SGF",good solubility
same,solubility at 0.5 h,"[2]; FeSSIF, pH 5, fessif, 0.5 h, 37° C., 200 rpm, target concentration 10 mg/mL, unit inferred, read-out: Solubility in FeSSIF (pH 5.0)",5.07 mg/mL
same,solubility at 0.5 h,"[2]; SGF, pH 1.2, simulated gastric fluid, 0.5 h, 37° C., 200 rpm, target concentration 10 mg/mL, unit inferred, read-out: Solubility in SGF (pH 1.2)",> 10 mg/mL
same,Purity (5 months),[3],99.60%
same,Appearance,[3],White powder
same,Crystalline form,[3],Unchanged
same,Purity (0 month),[3],99.62%
same,Crystalline form,[4],Unchanged
same,Purity,[4],99.64%
same,crystalline form after mechanical grinding (XRPD),[5],not changed
same,Solubility (mg/mL) in Acetone,[6]; [10],<0.46 mg/mL
same,Solubility (mg/mL) in Acetonitrile,[6]; [10],<0.38 mg/mL
same,Solubility (mg/mL) in Dichloromethane,[6]; [10],<0.44 mg/mL
same,Solubility (mg/mL) in Ethanol,[6]; [10],~0.55 mg/mL
same,Solubility (mg/mL) in Ethyl acetate,[6]; [10],<0.38 mg/mL
same,Solubility (mg/mL) in Isopropanol,[6]; [10],<0.40 mg/mL
same,Solubility (mg/mL) in Tetrahydrofuran,[6]; [10],<0.37 mg/mL
same,solubility in the other seven commonly used organic solvents (in words),[6]; all solvents of Table 15 except methanol,very poor solubility
same,crystalline form after slurrying in conventional organic solvents (XRPD),[7],consistent; also recorded: stable
same,Animal number (Survival/total),[8]; 12.5 mg/kg oral,6/6
same,Tumor weight,[8]; 12.5 mg/kg oral,1.77 ± 0.85 g
same,Inhibition rate %,[8]; 12.5 mg/kg oral,47.99%
same,Animal number (Survival/total),[8]; 25 mg/kg oral,6/6
same,Tumor weight,[8]; 25 mg/kg oral,1.34 ± 1.15 g
same,Inhibition rate %,[8]; 25 mg/kg oral,60.52%
same,effect on growth of tumors (in words),"[8]; 12.5 and 25 mg/kg oral, compared with the Vehicle group",significantly inhibit the growth of tumors
COc1cc2c(Nc3ccc(Br)cc3F)ncnc2cc1OCCCCN(C)C [Example 2],"Solubility (25° C., mg/mL) Medium: pH 2.0 buffer",[1]; [9],7.69 mg/mL
same,"Solubility (25° C., mg/mL) Medium: Water",[1]; purified water,34.32 mg/mL
same,solubility in pH 2.0 buffer compared with Preparation Example 1 (in words),[1],slightly lower
same,Purity (5 months),[3],98.56%
same,Appearance,[3],White powder
same,Crystalline form,[3],Unchanged
same,Purity (0 month),[3],98.55%
same,Crystalline form,[4],Unchanged
same,Purity,[4],98.54%
COc1cc2c(Nc3ccc(Br)cc3F)ncnc2cc1OCCCCN(C)C [Example 3],"Solubility (25° C., mg/mL) Medium: pH 2.0 buffer",[1]; [9],5.00 mg/mL
same,"Solubility (25° C., mg/mL) Medium: Water",[1]; purified water,10.91 mg/mL
same,solubility in pH 2.0 buffer compared with Preparation Example 1 (in words),[1],slightly lower
same,Purity (5 months),[3],98.84%
same,Appearance,[3],White powder
same,Crystalline form,[3],Unchanged
same,Purity (0 month),[3],98.83%
COc1cc2c(Nc3ccc(Br)cc3F)ncnc2cc1OCCCCN(C)C.O=C(O)/C=C\C(=O)O [Example 4],solubility in pH 2.0 buffer compared with Preparation Example 1 (in words),[1],slightly better
same,solubility,"[1]; pH 2.0 phosphoric acid-disodium hydrogen phosphate buffer, pH 2, aqueous buffer, pH 2.0 phosphoric acid-disodium hydrogen phosphate buffer, read-out: Solubility (25° C., mg/mL) Medium: pH 2.0 buffer",12.5 mg/mL
same,solubility,[1]; [11],13.7 mg/mL
same,Purity (5 months),[3],96.41%
same,Appearance,[3],White powder
same,Crystalline form,[3],Unchanged
same,Purity (0 month),[3],96.72%
COc1cc2c(Nc3ccc(Br)cc3F)ncnc2cc1OCCCCN(C)C.O=C(O)C(=O)O [Example 9],solubility,[1]; [11],2.89 mg/mL
same,Purity (5 months),[3],99.34%
same,Appearance,[3],White powder
same,Crystalline form,[3],Unchanged
same,Purity (0 month),[3],99.38%
COc1cc2c(Nc3ccc(Br)cc3F)ncnc2cc1OCCCCN(C)C [Example 10],Solubility in FeSSIF (pH 5.0),"[2]; 0.5 h, 37° C., 200 rpm, target concentration 10 mg/mL, unit inferred",7.3 mg/mL
same,Solubility in FaSSIF (pH 6.5),[2]; [12],"solution, >10"
same,Solubility in SGF (pH 1.2),[2]; [12],"solution, >10"
same,solubility in biological vehicles with different pH (in words),"[2]; FaSSIF, FeSSIF, SGF",good solubility
same,Crystalline form,[4],Unchanged
same,Purity,[4],99.74%
"COc1cc2c(Nc3ccc(Br)cc3F)ncnc2cc1OCCCCN(C)C [Preparation Example 1, 4-(4-bromo-2-fluoroanilino)-6-methoxy-7-[(4-N,N-dimethylamino)butoxy]quinazoline]","Solubility (25° C., mg/mL) Medium: Water",[1]; purified water,0.036 mg/mL
same,water-solubility (in words),[1]; water,very poor water-solubility
same,Solubility (mg/mL) in Acetone,[6]; [10],44.04 mg/mL
same,Solubility (mg/mL) in Acetonitrile,[6]; [10],10.66 mg/mL
same,Solubility (mg/mL) in Dichloromethane,[6]; [10],30.49 mg/mL
same,Solubility (mg/mL) in Ethanol,[6]; [10],205.2 mg/mL
same,Solubility (mg/mL) in Ethyl acetate,[6]; [10],30.38 mg/mL
same,Solubility (mg/mL) in Isopropanol,[6]; [10],51.05 mg/mL
same,Solubility (mg/mL) in Methanol,"[6]; Methanol, Preparation Example 1 by Pharmacopoeia method, Example 1 estimated by gravimetric method",>60 mg/mL
same,Solubility (mg/mL) in Tetrahydrofuran,[6]; [10],201.4 mg/mL
same,solubility,"[6]; organic solvent or mixture, thermodynamic from solid, read-out: solubility in various conventional organic solvents (all)",> 10 mg/mL
"COc1cc2c(Nc3ccc(Br)cc3F)ncnc2cc1OCC1CCN(C)CC1 [Vandetanib, reference compound]",Animal number (Survival/total),[8]; 12.5 mg/kg oral,6/6
same,Tumor weight,[8]; 12.5 mg/kg oral,2.89 ± 0.67 g
same,Inhibition rate %,[8]; 12.5 mg/kg oral,15.18%
same,Animal number (Survival/total),[8]; 25 mg/kg oral,6/6
same,Tumor weight,[8]; 25 mg/kg oral,1.90 ± 0.93 g
same,Inhibition rate %,[8]; 25 mg/kg oral,44.15%
